Where two headings read alike, the source gives them in different places.
Columns and labels:
[1] = test system: Wistar rats, Model of Arthritis (BCG vaccine); assay: Primary inflammation: degree of swelling of injected feet, BCG vaccine arthritis model; assay type: in vivo
Method: (§1) Animal: Wistar rats, 2-3 months, 180±30 g.
(§2) Chemical agents: Paeoniflorin R1, Lobenzarit disodium (CCA), Indomethacin (IM), and BCG vaccine
(§3) Model of Arthritis: inject 0.1 ml of 10 mg BCG vaccine to the right hind foot, bottom side, intracutaneously.
Primary inflammation: Degree of swelling of injected feet (primary inflammation): oral treatment was given 30 minutes before the inflammatory injection (BCG vaccine). The degree of swelling was measured 1, 3, 5, and 7 days after the injection.
Oral administration of Paeoniflorin R1 30˜60 minutes before inflammatory injection.
TGP's influence on degree of swelling of injected feet (primary inflammation)

[2] = test system: abdominal cavity macrophage; assay: H2O2, IL-1 and PGE2 produced by abdominal cavity macrophage of arthritis rats (Paeoniflorin R1); assay type: in vivo; conditions: 25 mg/kg from 7 days after inflammatory injection, sacrificed day 17; FIG. 44
Method: Amount of H2O2, IL-1, and PGE2 produced by abdominal cavity macrophage: Use 5 rats in each group, paeoniflorin R1 (25 mg/kg) treatment starts 7 days after inflammatory injection, animal sacrificed on day 17.

[3] = test system: Wistar rats, Model of Arthritis (BCG vaccine); assay: Secondary inflammation: swelling of opposite non-injected feet and thymus weight, BCG vaccine arthritis model; assay type: in vivo; conditions: for Degree of Swelling Day 12 / Degree of Swelling Day 16 / Degree of Swelling Day 20 / Degree of Swelling Day 24 / Degree of Swelling Day 28: non-injected feet
Method: as §1, §2, §3
Secondary inflammation: Swelling degree of the opposite non-injected feet (secondary inflammation): oral treatment was given 12-28 days after the inflammatory injection. The degree of swelling was measured 12, 16, 20, 24 and 28 days after the injection.
Groups of animals for secondary inflammation: 6 groups, each contains 6 rats, groups are: 1) Normal control, receive no inflammatory injection and any pre treatment; 2) Negative control, receive inflammatory injection and no treatment; 3) Positive control, receive inflammatory injection and CCA treatment; 4) Paeoniflorin R1 groups (5, 25, 50 mg/kg/d) oral administration of Paeoniflorin R1 30˜60 minutes before inflammatory injection.
TGP's influence on degree of swelling of opposite, non-injected feet (secondary inflammation)

[4] = test system: sub-group T cell in peripheral circulation; assay: Sub-group T cell (Th/Ts) in peripheral circulation of arthritis rats (Paeoniflorin R1); assay type: in vivo; conditions: 25 mg/kg from 18 days after inflammatory injection, sacrificed day 26; P<0.01; FIG. 45
Method: Sub-Group T Cell in Peripheral Circulation
Paeoniflorin R1 treatment (25 mg/kg) started at 18 days after inflammatory injection, animal sacrificed on day 26.

synovial cells = assay: IL-1, TNF and PGE2 produced by synovial cells of arthritis rats (Paeoniflorin R1); assay type: in vivo; conditions: 25 mg/kg from 12 days after inflammatory injection, sacrificed day 22; P<0.01
Method: IL-1, TNF, and PGE2 Produced by Synovial Cells
Paeoniflorin R1 treatment (25 mg/kg) started at 12 days after inflammatory injection, animal sacrificed on day 22.

[5] = test system: abdominal cavity macrophage; assay: Kinemics of abdominal cavity macrophage PGE2 release in arthritis rats (Paeoniflorin R1); assay type: in vivo; conditions: treatment from 1st day after inflammatory injection, sacrificed day 7, 14, 21, 28; FIG. 46
Text: Kinemics in Abdominal Cavity Macrophage Release PGE2
Paeoniflorin R1 treatment started the 1st day after inflammatory injection, animal sacrificed on day 7, 14, 21, and 28.

[6] = test system: histidine-requiring salmonell typhimurrium mutants TA 97, TA 98, Ta 100 and TA 102; conditions: +S9, 2-AF 10 μg/plate
Method: That was a parallel test between two groups of plates with or without the mixture of S9.
Each course was to be performed twice for three plates of different concentrations. Positive indicators and solvent control were included within all courses. Courses were performed with a ‘pre-incubation’ method, and the final result comes out in average from total six values.

[7] = test system: Sprage-Dawley (SD) rats, adjuvant arthritis; assay: Adjuvant arthritis in rats (FCA): secondary inflammation, non-injected foot, thymus, pathology; assay type: in vivo
[8] = test system: Sprage-Dawley (SD) rats, adjuvant arthritis; assay: Adjuvant arthritis in rats (FCA): primary inflammation, injected foot; assay type: in vivo
[9] = test system: Chinese hamaster lung fibroblast (CHL) cells; assay type: cell-based
Method: TGP, was dissolved in methyl-sulfoxide.
With method of Ishidate (1981), cells were collected in 24 and 48 hours for S9− groups and 24 hours for S9+. All assays were performed twice and their average was taken for final results.

[10] = test system: mice, IgM in the spleen cells; assay: Enhanced IgM formation of mice induced by cyclophosphamide (spleen cell transfer); assay type: in vivo; conditions: group C: donor mice SOI + Cy + solvent, Cy 100 mg/kg i.p.
Text: See table 49 and table 50 for grouping and test procedures: spleen cells of donor mice are transferred to acceptor mice. And, SRBC (4×10^8/mouse i.p.) are given to the acceptor mice for additional immune enhancement. Acceptors are killed on the fifth day of transference and examined for the quantity of IgM in the spleen cells.

[11] = test system: mice, IgM in the spleen cells; assay: Weakened IgM formation of mice induced by cyclophosphamide; assay type: in vivo; conditions: Cy + solvent, Cy 125 mg/kg i.p. at d-3
Method: All groups of mice were sensitized with 0.2 ml 10% SRBC suspension i.p., mice were also administered 125 mg/kg of cyclophosphamide 3 days before the sensitization to make up the models of weakened immunoreactions. […] The mice were killed on the fifth day, organs of spleens and thymus were weighted and quantity of IgM in the spleen cells examined.

ICR mice [12] = assay: Enhanced delayed type hypersensitivity (DTH) reaction of mice induced by cyclophosphamide; assay type: in vivo; conditions: Cy + Solvent, Cy 250 mg/kg i.p. at d-3
Method: Cyclophosphamide was administered 3 days before (d-3) the first day sensitization (enhanced DTH model).

ICR mice [13] = conditions: CTX 80 mg/kg
Method: ICR mice of sexual maturity, all males. Six random groups with eight mice in each one.
With a gradient of 4:1, the four concentrations were set at 2500 mg/kg, 625 mg/kg, […] and 39 mg/kg.
The drug was administered by gastric injection at the above doses together with the positive indicator (Cytoxan) and the solvent control. The course was repeated after 24 hours and animals were killed six hours after the second administration. Samples were taken and examined.

pregnant Wistar rats = assay: Test of teratogenesis in pregnant rats; assay type: in vivo; conditions: 250 mg/kg
Method: Ninety pregnant Wistar rats were numbered by their date of fertilization and randomly divided into five groups. The other two were for the control groups.
A positive and a negative control groups were also set up, rats were given acetosalicylic acid (250 mg/kg) in the positive group and distilled water of the same volume in the negative group.
The positive control group was treated with the acetosalicylic acid from day 9 to 11. Both were by gastric injection.
The body weight of rats in all groups was taken once every three days, and the amount of drugs were adjusted individually after the body weight. Rats were killed at day 20 of pregnancy, wombs and embryos were extracted by cesarean section, which was for the study and examination in a traditional way.

[14] = S9+, CP (60.0 μg/ml, 24, by row order of Table 43)

Compound: 2-hydroxy-3 Methyl-Glucoside-4-Oxo-7-Carbonyl-Tricyclo [3,2,2,0^1,2]-Nonanyl-Benzoicmethoxycarbonyl [Paeoniflorin R1]
- Degree of Swelling Day 1 ([1]; 25 mg/kg/d oral): 0.59
- Degree of Swelling Day 3 ([1]; 25 mg/kg/d oral): 0.81
- Degree of Swelling Day 5 ([1]; 25 mg/kg/d oral): 0.50
- Degree of Swelling Day 7 ([1]; 25 mg/kg/d oral): 0.40
- Amount of H2O2, IL-1, and PGE2 produced by abdominal cavity macrophage [2]: can decrease the above reaction
- W. of Thymus Glands ([3]; 5 mg/kg/d oral): 16.3 mg/kg body W.
- W. of Thymus Glands ([3]; 25 mg/kg/d oral): 19.4 mg/kg body W.
- W. of Thymus Glands ([3]; 50 mg/kg/d oral): 13.9 mg/kg body W.
- Degree of Swelling Day 12 ([3]; 5 mg/kg/d oral): 0.35
- Degree of Swelling Day 16 ([3]; 5 mg/kg/d oral): 0.42
- Degree of Swelling Day 20 ([3]; 5 mg/kg/d oral): 0.33
- Degree of Swelling Day 24 ([3]; 5 mg/kg/d oral): 0.25
- Degree of Swelling Day 28 ([3]; 5 mg/kg/d oral): 0.26
- Degree of Swelling Day 12 ([3]; 25 mg/kg/d oral): 0.41±
- Degree of Swelling Day 16 ([3]; 25 mg/kg/d oral): 0.39
- Degree of Swelling Day 20 ([3]; 25 mg/kg/d oral): 0.20
- Degree of Swelling Day 24 ([3]; 25 mg/kg/d oral): 0.15
- Degree of Swelling Day 28 ([3]; 25 mg/kg/d oral): 0.23
- Degree of Swelling Day 12 ([3]; 50 mg/kg/d oral): 0.40
- Degree of Swelling Day 16 ([3]; 50 mg/kg/d oral): 0.39
- Degree of Swelling Day 20 ([3]; 50 mg/kg/d oral): 0.30
- Degree of Swelling Day 24 ([3]; 50 mg/kg/d oral): 0.27
- Degree of Swelling Day 28 ([3]; 50 mg/kg/d oral): 0.24
- Th/Ts in peripheral circulation [4]: can improve Th/Ts
- IL-1, TNF, and PGE2 produced by synovial cells (result worded as Th/Ts) (synovial cells): can improve Th/Ts
- abdominal cavity macrophage PGE2 release [5]: effective in PGE2 release

Compound: Nc1ccc2c(c1)Cc1ccccc1-2 [2-AF]
- reverting colonies, AT 97 [6]: 598 ± 27.4
- reverting colonies, AT 98 [6]: 974 ± 30.7
- reverting colonies, AT 100 [6]: 772 ± 29.8

Compound: O=C(O)c1ccccc1Nc1cc(Cl)ccc1C(=O)O [CCA, Lobenzarit disodium]
- Degree of Swelling Day 1 ([1]; 50 mg/kg/d oral): 0.65
- Degree of Swelling Day 3 ([1]; 50 mg/kg/d oral): 0.96
- Degree of Swelling Day 5 ([1]; 50 mg/kg/d oral): 0.68
- Degree of Swelling Day 7 ([1]; 50 mg/kg/d oral): 0.65
- weight of thymus ([7]; AA rats, gastric infusion d12 through d20): the weight of their thymus are gained
- joint swelling ([7]; AA rats, gastric infusion d12 through d20, all three doses of TGP, one dose CCA): certain improvements in joint swelling
- weight of thymus ([7]; CCA 50 mg/kgd): 14.3 ± 3.9
- Degree of Swelling, non-injected foot ([7]; d20, CCA 50 mg/kgd): 0.41 ± 0.22 mL
- Degree of Swelling, non-injected foot ([7]; d24, CCA 50 mg/kgd): 0.14 ± 0.15 mL
- Degree of Swelling, non-injected foot ([7]; d28, CCA 50 mg/kgd): 0.05 ± 0.02 mL
- Degree of swelling, injected foot ([8]; d3, CCA 50 mg/kgd): 0.94 ± 0.17
- Degree of swelling, injected foot ([8]; d5, CCA 50 mg/kgd): 0.67 ± 0.18
- Degree of swelling, injected foot ([8]; d7, CCA 50 mg/kgd): 0.63 ± 0.18
- W. of Thymus Glands ([3]; 50 mg/kg/d oral): 14.4 mg/kg body W.
- Degree of Swelling Day 12 ([3]; 50 mg/kg/d oral): 0.40
- Degree of Swelling Day 16 ([3]; 50 mg/kg/d oral): 0.55
- Degree of Swelling Day 20 ([3]; 50 mg/kg/d oral): 0.42
- Degree of Swelling Day 24 ([3]; 50 mg/kg/d oral): 0.14
- Degree of Swelling Day 28 ([3]; 50 mg/kg/d oral): 0.05

Compound: O=P1(N(CCCl)CCCl)NCCCO1 (centres unmarked) [CP, Cyclophosphamide]
- Result of chromosome aberration test ([9]; CP (15 μg/ml, 48, by row order of Table 43)): + +
- Result of chromosome aberration test ([9]; CP (60.0 μg/ml, 24, by row order of Table 43)): + +
- Deformation (types) [9, 14]: g, p, b, r, t, f
- Deformation Rate [9, 14]: 44.0%
- Deformation Rate ([9]; S9−, CP 15 μg/ml, incubation 48): 34.5%
- Ig M (A), acceptor mice [10]: 0.53 ± 0.03^ΔΔ
- Rate of inhibition [10]: 24.3
- Quantity of Ig M (A value) [11]: 0.41 ± 0.10
- Weight of Spleen [11]: 56.6 +11.5
- weight of thymus [11]: 6.2 ± 4.7
- Degree of ear swelling (ICR mice [12]): 28.1 ± 7.2

Compound: O=P1(N(CCCl)CCCl)NCCCO1 (centres unmarked) [CTX, Cytoxan]
- MPCE % ± SD (ICR mice [13]): 41.37 ± 10.29%

Compound: COc1ccc2c(c1)c(CC(=O)O)c(C)n2C(=O)c1ccc(Cl)cc1 [IM, Indomethacin]
- Degree of Swelling Day 1 ([1]; 2 mg/kg/d oral): 0.52
- Degree of Swelling Day 3 ([1]; 2 mg/kg/d oral): 0.57
- Degree of Swelling Day 5 ([1]; 2 mg/kg/d oral): 0.34
- Degree of Swelling Day 7 ([1]; 2 mg/kg/d oral): 0.30
- abdominal cavity macrophage PGE2 release [5]: effective in PGE2 release

Compound: CO[C@@]12[C@H](COC(N)=O)C3=C(C(=O)C(C)=C(N)C3=O)N1C[C@@H]1N[C@@H]12 [MMC, Mitomycin C]
- Deformation (types) [9]: g, b, p, t, f
- Deformation Rate [9]: 79.5%

Compound: CC(=O)Oc1ccccc1C(=O)O [acetosalicylic acid]
- malformation in appearance (harelip, split tongue, short body, abnormal limbs) (pregnant Wistar rats): 4.4%
- deformity rate in skeletal system (pregnant Wistar rats; P<0.01): 69.5%
- growth of embryo rats vs negative control (pregnant Wistar rats; P<0.01 and P<0.05): showed differences in the body weight and length of embryos
- absorptive embryo rate, dead embryo rate, survival rate vs negative control (pregnant Wistar rats; day 9 to 11, P<0.01): much higher absorptive embryo rate, and dead embryo rate, and lower survival rate

Reference: US20030232102A1, “Total glycosides of paeony, method to prepare the same and uses thereof” (priority 2001, published 2003)
